In ChEMBL document CHEMBL4477267, “Discovery of oxa-sultams as RORc inverse agonists showing reduced lipophilicity, improved selectivity and favorable ADME properties” (Bioorg Med Chem Lett, 2016):
≈ marks a conversion by molar mass, not a printed value.

Assays:
[1] = target: T1, Nuclear receptor ROR-beta (Homo sapiens, UniProt Q92753); assay: Inverse agonist activity at GAL4-fused human RORb expressed in HEK293 cells assessed as […] of basal transcriptional activity by dual-glo luciferase reporter gene assay; assay type: cell-based
T1 sequence (Q92753 whole entry): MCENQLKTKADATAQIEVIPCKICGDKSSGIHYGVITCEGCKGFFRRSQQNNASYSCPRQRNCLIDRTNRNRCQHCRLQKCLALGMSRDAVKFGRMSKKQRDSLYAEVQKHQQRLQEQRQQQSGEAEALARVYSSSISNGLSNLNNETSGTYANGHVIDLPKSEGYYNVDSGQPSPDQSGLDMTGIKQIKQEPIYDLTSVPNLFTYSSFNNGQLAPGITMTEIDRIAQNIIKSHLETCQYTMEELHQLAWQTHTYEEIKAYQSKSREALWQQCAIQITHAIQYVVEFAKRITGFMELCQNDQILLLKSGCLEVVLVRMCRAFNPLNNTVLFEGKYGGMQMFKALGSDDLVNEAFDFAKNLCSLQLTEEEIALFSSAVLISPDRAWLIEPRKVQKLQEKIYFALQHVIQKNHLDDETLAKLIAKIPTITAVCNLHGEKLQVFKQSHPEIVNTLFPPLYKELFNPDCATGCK

[2] = target: T2, Nuclear receptor ROR-gamma (Homo sapiens, UniProt P51449); assay: Inverse agonist activity at GAL4-fused human RORc expressed in HEK293 cells assessed as […] of basal transcriptional activity by dual-glo luciferase reporter gene assay; assay type: cell-based
T2 sequence (P51449 whole entry): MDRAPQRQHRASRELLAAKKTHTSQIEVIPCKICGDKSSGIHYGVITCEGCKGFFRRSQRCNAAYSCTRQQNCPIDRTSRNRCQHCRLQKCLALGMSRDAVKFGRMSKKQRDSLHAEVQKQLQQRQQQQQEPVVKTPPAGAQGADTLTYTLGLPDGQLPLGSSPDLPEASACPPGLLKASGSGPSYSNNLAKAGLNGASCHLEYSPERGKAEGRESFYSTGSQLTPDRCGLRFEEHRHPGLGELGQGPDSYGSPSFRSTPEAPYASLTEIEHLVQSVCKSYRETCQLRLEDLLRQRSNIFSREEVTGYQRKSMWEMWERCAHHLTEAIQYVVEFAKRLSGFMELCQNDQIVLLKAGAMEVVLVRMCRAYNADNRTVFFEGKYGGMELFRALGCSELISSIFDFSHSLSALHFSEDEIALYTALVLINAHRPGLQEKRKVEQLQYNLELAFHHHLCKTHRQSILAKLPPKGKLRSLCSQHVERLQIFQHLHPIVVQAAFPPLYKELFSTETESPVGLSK

PBMC [3] = assay: Inhibition of IL-17AA production in anti-CD3 and anti-CD28 stimulated human PBMC measured […] by Sandwich ELISA relative to control; assay type: functional
PBMC [4] = assay: Inhibition of IL-17AA production in anti-CD3 and anti-CD28 stimulated human PBMC measured […] by Sandwich ELISA; assay type: functional, cell-based
[5] = target: T3, Nuclear receptor ROR-gamma (Homo sapiens) (UniProt P51449); assay: Inverse agonist activity at human RORc-LBD assessed as inhibition of SRC1 co-activator peptide recruitment by FRET assay relative to apo-RORc basal activity
T3 sequence (whole entry): T2 sequence (P51449 whole entry)

[6] = target: T4, Nuclear receptor ROR-alpha (Homo sapiens, UniProt P35398); assay: Inverse agonist activity at GAL4-fused human RORa expressed in HEK293 cells assessed as […] of basal transcriptional activity by dual-glo luciferase reporter gene assay; assay type: cell-based
T4 sequence (P35398 whole entry): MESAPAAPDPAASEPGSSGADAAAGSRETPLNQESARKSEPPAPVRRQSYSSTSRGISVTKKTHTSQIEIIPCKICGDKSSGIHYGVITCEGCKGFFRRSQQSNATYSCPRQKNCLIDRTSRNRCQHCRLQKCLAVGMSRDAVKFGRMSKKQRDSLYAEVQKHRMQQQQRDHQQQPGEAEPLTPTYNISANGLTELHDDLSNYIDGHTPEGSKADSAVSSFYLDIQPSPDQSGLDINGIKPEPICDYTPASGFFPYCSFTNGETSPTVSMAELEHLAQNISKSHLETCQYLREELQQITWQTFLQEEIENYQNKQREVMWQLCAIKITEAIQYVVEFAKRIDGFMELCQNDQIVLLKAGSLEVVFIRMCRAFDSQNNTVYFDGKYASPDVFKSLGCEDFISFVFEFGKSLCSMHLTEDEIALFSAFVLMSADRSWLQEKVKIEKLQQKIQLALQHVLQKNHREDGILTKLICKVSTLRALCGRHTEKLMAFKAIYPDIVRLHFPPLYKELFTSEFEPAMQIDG

PBMC [7] = assay: Cytotoxicity against human PBMC assessed as cell viability measured after 48 hrs by CellTiter-Glo assay; assay type: cell-based
[8] = target: T2, Nuclear receptor ROR-gamma; assay: Inverse agonist activity at human RORc-LBD assessed as inhibition of SRC1 co-activator peptide recruitment by FRET assay
PBMC [9] = assay: Inhibition of IFN-gamma production in anti-CD3 and anti-CD28 stimulated human PBMC measured […] by Sandwich ELISA; assay type: functional, cell-based
[10] = Apparent permeability from basolateral to apical side in MDCK cells; assay type: ADME, cell-based, Canis lupus familiaris; details: dog
[11] = Protein binding in mouse plasma by equilibrium dialysis; assay type: ADME, cell-free; details: read-out: PPB (converted)
[12] = Protein binding in human plasma by equilibrium dialysis; assay type: ADME, cell-free; details: read-out: PPB (converted)
[13] = Apparent permeability from apical to basolateral side in MDCK cells; assay type: ADME, cell-based, Canis lupus familiaris; details: dog
[14] = Protein binding in rat plasma by equilibrium dialysis; assay type: ADME, cell-free; details: read-out: PPB (converted)
[15] = Efflux ratio of apparent permeability from basolateral to apical over apical to basolateral side in MDCK cells; assay type: ADME, cell-based, Canis lupus familiaris; details: dog
[16] = Clearance in human liver microsomes relative to liver blood flow; assay type: ADME, Microsome; details: read-out: CLH
[17] = Clearance in rat liver microsomes relative to liver blood flow; assay type: ADME, Microsome; details: read-out: CLH
[18] = Aqueous kinetic solubility of the compound in pH 7.4 by high-throughput assay; assay type: physicochemical

Compound: CC(=O)N1CCN(c2ccc(CN3[C@@H](C)COC[C@H](c4ccccc4)S3(=O)=O)c(F)c2)CC1
- EC50 [1]: > 10000 nM
- EC50 [2]: 64 nM
- Imax (PBMC [3]): 80%
- EC50 (PBMC [4]): 750 nM
- Efficacy [5]: 100%
- EC50 [6]: > 10000 nM
- EC50 (PBMC [7]): > 20000 nM
- EC50 [8]: 8 nM
- EC50 (PBMC [9]): > 20000 nM

Compound: CC(=O)N1CCN(c2ccc(CN3[C@@H](C)CC[C@H](c4cccnc4)S3(=O)=O)c(F)c2)CC1
- Efficacy [5]: 73%
- EC50 [8]: 820 nM

Compound: CC(=O)N1CCN(c2ccc(CN3C[C@@H](C)OC[C@H](c4ccccc4)S3(=O)=O)c(F)c2)CC1
- Efficacy [5]: 100%
- EC50 [8]: 21 nM

Compound: CC(=O)N1CCN(c2ccc(CN3[C@@H](C)CC[C@H](c4cccc(C#N)c4)S3(=O)=O)c(F)c2)CC1
- Efficacy [5]: 64%
- EC50 [8]: 1300 nM

Compound: CC(=O)N1CCN(c2ccc(CN3[C@@H](C)CC[C@H](c4ccsc4)S3(=O)=O)c(F)c2)CC1
- Efficacy [5]: 98%
- EC50 [8]: 13 nM

Compound: CC(=O)N1CCN(c2ccc(CN3C[C@H](C)OC[C@H](c4ccccc4)S3(=O)=O)c(F)c2)CC1
- Papp B→A [10]: 15 ×10⁻⁶ cm/s
- EC50 [1]: > 10000 nM
- EC50 [2]: 22 nM
- fraction unbound [11]: 0.06
- fraction unbound [12]: 0.11
- Papp A→B [13]: 16 ×10⁻⁶ cm/s
- Imax (PBMC [3]): 67%
- EC50 (PBMC [4]): 450 nM
- fraction unbound [14]: 0.07
- Efficacy [5]: 100%
- EC50 [6]: > 10000 nM
- efflux ratio [15]: 1
- EC50 (PBMC [7]): > 20000 nM
- hepatic extraction ratio [16]: > 0.7
- EC50 [8]: 3 nM
- EC50 (PBMC [9]): > 20000 nM
- hepatic extraction ratio [17]: > 0.7
- solubility kinetic [18]: 38 µM (≈ 18.1 µg/mL)

Compound: CC(=O)N1CCN(c2ccc(CN3[C@@H](C)CC[C@H](c4ccccc4Cl)S3(=O)=O)c(F)c2)CC1
- Efficacy [5]: 91%
- EC50 [8]: 230 nM

Compound: CC(=O)N1CCN(c2ccc(CN3[C@@H](C)CC[C@H](c4ccc(Cl)cc4)S3(=O)=O)c(F)c2)CC1
- Efficacy [5]: 99%
- EC50 [8]: 34 nM

Compound: CC(=O)N1CCN(c2ccc(CN3[C@@H](C)CC[C@H](c4ccccc4)S3(=O)=O)c(F)c2)CC1
- Papp B→A [10]: 32 ×10⁻⁶ cm/s
- EC50 [1]: 5400 nM
- EC50 [2]: 47 nM
- fraction unbound [11]: 0.04
- fraction unbound [12]: 0.05
- Papp A→B [13]: 24 ×10⁻⁶ cm/s
- Imax (PBMC [3]): 82%
- EC50 (PBMC [4]): 450 nM
- fraction unbound [14]: 0.05
- EC50 [6]: 5400 nM
- EC50 (PBMC [7]): > 20000 nM
- EC50 (PBMC [9]): > 20000 nM
- solubility kinetic [18]: 20 µM (≈ 9.19 µg/mL)

Compound: CC(=O)N1CCN(c2ccc(CN3[C@@H](C)CC[C@H](c4cccc(Cl)c4)S3(=O)=O)c(F)c2)CC1
- Efficacy [5]: 99%
- EC50 [8]: 7 nM

Compound: COc1cccc([C@H]2CC[C@H](C)N(Cc3ccc(N4CCN(C(C)=O)CC4)cc3F)S2(=O)=O)c1
- Efficacy [5]: 97%
- EC50 [8]: 58 nM

Compound: CC(=O)N1CCN(c2ccc(CN3[C@H](C)COC[C@H](c4ccccc4)S3(=O)=O)c(F)c2)CC1
- Efficacy [5]: 98%
- EC50 [8]: 73 nM

Compound: COc1ccccc1[C@H]1CC[C@H](C)N(Cc2ccc(N3CCN(C(C)=O)CC3)cc2F)S1(=O)=O
- Efficacy [5]: 94%
- EC50 [8]: 94 nM

Compound: CC(=O)N1CCN(c2ccc(CN3CCOC[C@H](c4ccccc4)S3(=O)=O)c(F)c2)CC1
- Imax (PBMC [3]): 59%
- EC50 (PBMC [4]): 1200 nM
- Efficacy [5]: 99%
- EC50 (PBMC [7]): > 20000 nM
- EC50 [8]: 31 nM
- EC50 (PBMC [9]): > 20000 nM

Compound: CC(=O)N1CCN(c2ccc(CN3[C@@H](C)CC[C@H](c4ccccn4)S3(=O)=O)c(F)c2)CC1
- Efficacy [5]: 87%
- EC50 [8]: 120 nM

Compound: CC(=O)N1CCN(c2ccc(CN3[C@@H](C)CC[C@H](c4ccncc4)S3(=O)=O)c(F)c2)CC1
- Efficacy [5]: 89%
- EC50 [8]: 410 nM

Compound: CC(=O)N1CCN(c2ccc(CN3[C@@H](C)CC[C@H](c4ccc(C#N)cc4)S3(=O)=O)c(F)c2)CC1
- Efficacy [5]: 62%
- EC50 [8]: 3900 nM

Compound: CC(=O)N1CCN(c2ccc(CN3[C@@H](C)CC[C@H](c4ccccc4C#N)S3(=O)=O)c(F)c2)CC1
- Efficacy [5]: 76%
- EC50 [8]: 1900 nM

Compound: CC(=O)N1CCN(c2ccc(CN3[C@@H](C)CC[C@H](c4cccs4)S3(=O)=O)c(F)c2)CC1
- Efficacy [5]: 91%
- EC50 [8]: 2 nM

Compound: CC(=O)N1CCN(c2ccc(CN3[C@@H](C)CC[C@H](c4ncccn4)S3(=O)=O)c(F)c2)CC1
- Efficacy [5]: 76%
- EC50 [8]: 410 nM

Compound: CC(=O)N1CCN(c2ccc(CN3CCCC[C@H](c4ccccc4)S3(=O)=O)c(F)c2)CC1
- EC50 [1]: 6800 nM
- EC50 [2]: 25 nM
- Imax (PBMC [3]): 80%
- EC50 (PBMC [4]): 430 nM
- Efficacy [5]: 99%
- EC50 [6]: 6800 nM
- EC50 (PBMC [7]): > 20000 nM
- EC50 [8]: 6 nM
- EC50 (PBMC [9]): > 20000 nM

Compound: COc1ccc([C@H]2CC[C@H](C)N(Cc3ccc(N4CCN(C(C)=O)CC4)cc3F)S2(=O)=O)cc1
- Efficacy [5]: 96%
- EC50 [8]: 28 nM
